Data reported in patent US7029652B2, “Method of treating tumors” (The Regents of the University of California, priority 1998, dated 2006).

Legend:
[1] = tested on: HBT 3477 tumors; assay: Proliferation (Ki67) in tumors; format: in vivo, mice
Protocol: (§1) Cellular immunopathology groups. Unless otherwise noted, groups consisted of 2 mice, each bearing 2 tumors, for a total of 4 tumors analyzed at each time point. […] The tumors were removed, cut in half, frozen in optimal cutting temperature (O.C.T). medium, and stored at about −70° C. until sectioning (10-μm sections). All time points were evaluated for apoptosis by terminal deoxynucleotidyl transferase-mediated dUTP nick end labeling (TUNEL, Cavrieli, et al. J. Cell Bio., 119: 493–501 (1992)) analysis, and selected time points (untreated, 1,5 and 6 days) were assessed for differences in proliferation rate (Ki67) and microvessel density (CD31).
(§2) Proliferation and microvessel density Analyses. 10-μm sections of tumors from untreated and mice treated with cRGD pentapeptide, RIT and CMRIT method and sacrificed at 1, 5 and 6 days after treatment were fixed for 10 minutes in ice-cold acetone, rinsed in PBS, and briefly incubated in methanol with 0.6% H2O2 (5 minutes). After rinsing in PBS, sections were blocked for 10 minutes with 10% goat serum and 1% bovine serum albumin in PBS. Mouse anti-Ki67 MAb (Pharmingen, clone B56) was applied in blocking solution (6.25 μg/ml) and the slides were incubated at room temperature for 2 hours, followed by rinsing in PBS. Goat anti-mouse rhodamine-labeled or goat anti-mouse Cy-3-labeled antibody was applied (Jackson ImmunoResearch Laboratories, Inc, West Grove, Pa., 1:100) and the slides were incubated for 1 hour at room temperature. After rinsing in PBS the sections were incubated for 1 hour at room temperature with rat anti-mouse CD31 antibody (Pharmingen, 1:100), followed by rinsing in PBS and a subsequent 1 hour incubation with goat anti-rat FITC-labeled antibody (Pharmingen, 1:50). After rinsing in PBS, the slides were counterstained with DAPI (0.4 μg/ml) and mounted in Biomeda gel mount (Fisher) under coverslips. Quantitation of Ki67 was performed using an Olympus microscope at X1000 magnification for assessment of proliferation. The mean total number of Ki67-positive cells/field in a tumor was determined by counts from 6 fields per tumor chosen randomly by DAPI stain. Microvessel density was determined by counting the number of CD31-stained vessels per random field at X400 magnification. Any endothelial cell or cell cluster positive for CD31, which was separate from an adjacent cluster, was counted as one microvessel. Six randomly chosen fields per tumor section were used to establish an average for each tumor. Average microvessel density for a treatment group was determined by averaging the values from 4 tumors/group.

[2] = tested on: HBT 3477 cells; assay: Attachment of HBT 3477 cells to vitronectin; format: cell-based, human; conditions: read-out: IC50 for blocking attachment of HBT 3477 cells to vitronectin
Source text: Cell Lines. HBT 3477, a human breast adenocarcinoma cell line, was obtained from Bristol-Myers Squibb Pharmaceutical Research Institute (Seattle, Wash.). Greater than 70% of HBT 3477 cells stain intensely with L6. In HBT 3477 cells, bcl-2 is expressed and p53 is mutant, with a nonsense mutation in exon 10, resulting in a deletion in the region of the p53 protein that functions in tetramerization and in detection of double-stranded DNA breaks. HBT 3477 cells express functional αvβ5 integrin, but not αvβ3 integrin, as attachment to vitronectin is blocked by αvβ5-specific P1F6 antibody, but is not blocked by αvβ3-specific LM609 antibody.

[3] = tested on: HBT 3477 tumors; assay: Microvessel density (CD31) in tumors; format: in vivo, mice
Protocol: as §1, §2

[4] = tested on: HBT 3477 tumors; assay: TUNEL analysis of total cell apoptosis in tumors; format: in vivo, mice
Protocol: as §1
TUNEL analysis of total and endothelial apoptosis. Tumors were cut into 10-μm sections onto Fisher superplus slides (Fisher, Pittsburgh, Pa.), air-dried for 1 hour and frozen at about −70° C. until TUNEL analysis with ApopTag Red kit (rhodamine used as label, Intergen, Purchase, N.Y.) following the manufacturer's instructions subsequent to fixation for about 10 minutes in 1% paraformadehyde. After TUNEL, the slides were rinsed, and incubated overnight at 4° C. with a rat anti-mouse MAb against CD31 at 1:100 dilution (Pharmingen, San Diego, Calif.) to identify endothelial cells. Slides were rinsed and incubated for 1 hour with an anti-rat antibody linked to FITC (1:50 dilution) (Pharmingen). Slides were rinsed, dipped briefly in 4,6-diamidino-2-phenylindole (DAPI, 0.2 μg/ml) for background nuclear stain, rinsed again and mounted, followed by storage in the dark at about 4° C. until quantitation.
Quantitation of total apoptosis and endothelial apoptosis. An Olympus microscope equipped with a Chroma Pinkle Filter Set (Chroma, Brattleboro, Vt.) with excitation filters for UV, FITC and rhodamine and dual/triple bandpass filters to allow simultaneous viewing of multiple wavelengths, was used to quantify 6 randomly chosen X600 fields (150,000 μm^2/field) in non-necrotic regions of each section. Fields were chosen to cover the entire viewing area using DAPI label, which typically included about 300–350 cells. Total apoptosis was determined by the average number of positive nuclei per field for each tumor while endothelial apoptosis was determined using the same fields with a dual bandpass filter to count cells labeled by both FITC (CD31) and rhodamine (TUNEL). Fields were chosen from apparently non-necrotic areas of tumor sections, as HBT 3477 xenografts typically grow quickly in nude mice, doubling their volumes in 6 days, resulting in central necrosis of untreated tumors. As TUNEL may label necrotic cells, though less intensely, this strategy was chosen over a completely random process.

[5] = tested on: endothelial cells in HBT 3477 tumors; assay: TUNEL/CD31 analysis of endothelial apoptosis in tumors; format: in vivo, mice
Protocol: as §1
TUNEL analysis of total and endothelial apoptosis. […] Slides were rinsed, dipped briefly in 4,6-diamidino-2-phenylindole (DAPI, 0.2 μg/ml) for background nuclear stain, rinsed again and mounted, followed by storage in the dark at about 4° C. until quantitation.
Quantitation of total apoptosis and endothelial apoptosis. An Olympus microscope equipped with a Chroma Pinkle Filter Set (Chroma, Brattleboro, Vt.) with excitation filters for UV, FITC and rhodamine and dual/triple bandpass filters to allow simultaneous viewing of multiple wavelengths, was used to quantify 6 randomly chosen X600 fields (150,000 μm^2/field) in non-necrotic regions of each section. […]

[6] = tested on: HBT 3477 tumors; assay: Tumoricidal effect in HBT 3477 breast cancer xenografts; format: in vivo, mice
Protocol: Mice. Female athymic Balb/c nu/nu mice (7–10 week old; Harlan Sprague Dawley, Inc., Frederick, Md.) were maintained according to University of California animal care guidelines. HBT 3477 cells (3.0×10^6), harvested in log phase, were injected subcutaneously into one side of the abdomen for therapy studies (except where noted) and into both sides for immunopathology studies. Injection of RIT was by tail vein and cyclo-(Arg-Gly-Asp-D-Phe-[N-Me]-Val) was delivered by intraperitoneal (i.p.) injection. “Day 0” was designated as the time of RIT injection or, for first cRGD pentapeptide injection, for cRGD pentapeptide only group. Mice were sacrificed by cervical dislocation for immunopathology studies at the times indicated, when tumor burden exceeded allowed limits, or at 84 days for therapy studies.
Control (No RIT) Treatment groups.
High Dose RIT Treatment groups.
Low Dose RIT Treatment groups. […] These doses were given on day 0, 1 hour prior to RIT, followed by 5 more doses on days 2, 4, 6, 8, and 10 (30 mice, all with 1 tumor each).
Tumoricidal effect. Tumors were measured with calipers in 3 orthogonal diameters 3 times per week. Tumor volume was calculated using the formula for hemiellipsoids (DeNardo et al. Clin. Cancer Res., 3:71–79 (1997)). Initial tumor volume was defined as the volume on the day before treatment. Tumors that completely regressed were considered to have a volume of zero. […] For mice bearing two tumors with differing responses, tumor response was described according to both tumor responses. Mice dying prior to 30 days from toxicity were excluded from tumor response results.
(§3) Statistical Analysis. Statistical analysis of mortality data for RIT and CMRIT method treated mice was performed using a Fisher Exact test with StatExact software to determine if mortality was different. Statistical analysis of therapy data was done using a Cochran Mantel Haenszel test to evaluate effect of RIT dose on outcome for RIT and CMRIT method groups. Comparison of cure rates to all other responses for RIT vs. CMRIT method groups was done by Fisher Exact test, with the best tumor response used for 2-tumored animals for statistical purposes. Statistical differences between immunopathology groups at the different time points were assessed by analysis of variance (ANOVA) (Fisher PLSD) using STATview software as appropriate, with p<0.05 considered significant.

[7] = Toxicity: mortality, weights and blood counts; format: in vivo
Protocol: Toxicity. Weights and blood counts were measured 2–3 times per week for 12 weeks post-injection or until death. Blood samples were collected from tail veins using 2 μL microcapillary pipets. Samples from mice within a dose group were pooled, and diluted 1:200 in phosphate-buffered saline (PBS, 0.9% saline/10 mM sodium phosphate, pH 7.6) for red blood cell (RBC) counts; 1:100 in 1% (w/v) ammonium oxalate for platelet counts; or 1:20 in 3% (w/v) acetic acid for white blood cell (WBC) counts.
as §3

[8] = tested on: αvβ3-expressing M21 melanoma cells; conditions: stated in words; cited from earlier work
[9] = tested on: HBT 3477 cells; assay: HBT 3477 cell binding radioimmunoreactive assay (RIA); parameters: species or system human
Source text: ^90Y-DOTA-peptide-ChL6. ChL6 was conjugated to 1,4,7,10-tetraazacyclododecane-N,N′,N″,N′″-tetraacetic acid (DOTA) and radiolabeled with ^90Y as described by DeNardo, et al. J. Nucl. Med., 36:829–836, with greater than or equal to 80 percent efficiency to prepare ^90Y-DOTA-peptide-ChL6. ^90Y-DOTA-peptide-ChL6 was examined for structural and functional integrity by molecular sieving high performance liquid chromatography (HPLC), cellulose acetate electrophoresis (CAE), and HBT 3477 cell binding radioimmunoreactive assay (RIA). […] Immunoreactive binding to live cells indicated greater than 92% reactivity; administration as a single dose of 200, 230 or 260 […] ^90Y-DOTA-peptide-ChL6.

[10] = tested on: HBT 3477 tumors; conditions: 250 μg provided 1 hour before RIT; cited from earlier work
[11] = Day 1, six fields per tumor at 1000X
[12] = Day 1, six fields per tumor at 400X
[13] = comparison as stated in the sentence
[14] = combined RIT 200–260 μCi, best response (parentheses)
[15] = combined RIT 200–260 μCi, worst response
[16] = high dose RIT 260 μCi, best response (parentheses)
[17] = high dose RIT 260 μCi, worst response
[18] = low dose RIT, best response (parentheses)

Molecule: CC(C)[C@H]1C(=O)N[C@@H](CCCN=C(N)N)C(=O)NCC(=O)N[C@@H](CC(=O)O)C(=O)N[C@H](Cc2ccccc2)C(=O)N1C [cyclo-(Arg-Gly-Asp-D-Phe-[N-Me]-Val)]
- Proliferating cells, average no. of Ki67-positive cells [1, 11]: 14 ± 2 f
- Proliferating cells, average no. of Ki67-positive cells ([1]; Day 5): 13 ± 1 f
- IC50 [2]: ~5 µM
- Microvessel density, average number ± SE of CD31 positive regions [3, 12]: 12 ± 2
- Microvessel density, average number ± SE of CD31 positive regions ([3]; Day 5): 20 ± 4
- total cell apoptosis, percent of cells ([4]; 1 day after treatment): 4.6%
- TUNEL-positive tumor and endothelial cells (total cells) ([4]; 1 day after treatment, X600, about 350 cells/field): 16.2±1.89 cells/field
- endothelial apoptosis ([5]; 1 day after treatment): 2.5±0.5 cells/field
- endothelial apoptosis ([5]; 5 days after treatment): 2.4±0.7 cells/field
- effect on tumor growth ([6]; 6×250 μg doses given every other day, in words): No apparent effect
- cures ([6]; no RIT, 6 × 250 μg i.p.): 0%
- CR complete regression (number of mice) ([6]; no RIT, worst response): 0
- NR no regression (number of mice) ([6]; no RIT, worst response): 18
- PR partial regression (number of mice) ([6]; no RIT, worst response): 0
- Cure (number of mice) ([6]; no RIT, worst response of 2-tumored mice, 84 days): no cures
- Cure (number of mice) ([6]; no RIT, worst response of 2-tumored mice, 84 days, listed as cRGD pentapeptide): 0
- mortality or toxicity, in words [7, 13]: No increased mortality or toxicity
- IC50 for αvβ3-expressing M21 melanoma cells [8]: low micromolar range

Molecule: ^90Y-1,4,7,10-tetraazacyclododecane-N,N′,N″,N′″-tetraacetic acid-peptide-ChL6 [RIT]
- Proliferating cells, average no. of Ki67-positive cells [1, 11]: 18 ± 1
- Proliferating cells, average no. of Ki67-positive cells ([1]; Day 5): 13 ± 1 f
- Proliferating cells, average no. of Ki67-positive cells ([1]; Day 6): 7 ± 1
- Immunoreactive binding to live cells, reactivity [9]: greater than 92%
- Microvessel density, average number ± SE of CD31 positive regions [3, 12]: 15 ± 1
- Microvessel density, average number ± SE of CD31 positive regions ([3]; Day 5): 13 ± 1
- Microvessel density, average number ± SE of CD31 positive regions ([3]; Day 6): 9 ± 1 e
- TUNEL-positive tumor and endothelial cells (total cells) ([4]; 6 days): 21.4±2.9 cells/field
- total cell apoptosis, percent of cells ([4]; 6 days): 6.1%
- CR complete regression (number of mice) [6, 14]: 10
- Cure (number of mice) [6, 14]: 9
- NR no regression (number of mice) [6, 14]: 0
- PR partial regression (number of mice) [6, 14]: 27
- CR complete regression (number of mice) [6, 15]: 6
- NR no regression (number of mice) [6, 15]: 3
- PR partial regression (number of mice) [6, 15]: 29
- cure rate ([6]; combined low and high dose RIT): 20%
- Cure (number of mice) ([6]; combined low and high dose RIT 200–260 μCi, worst response): 8
- Cure (number of mice) ([6]; high dose RIT 260 μCi (CMRIT + cRGD 250 μg × 6), worst response): 4
- CR complete regression (number of mice) [6, 16]: 6
- PR partial regression (number of mice) [6, 16]: 16
- CR complete regression (number of mice) [6, 17]: 2
- NR no regression (number of mice) [6, 17]: 0
- PR partial regression (number of mice) [6, 17]: 20
- cures ([6]; high dose RIT (260 μCi)): 15%
- Cure (number of mice) ([6]; low dose RIT 200–230 μCi (CMRIT 200 μCi + cRGD 250 μg × 6), worst response): 4
- Cure (number of mice) ([6]; low dose RIT 200–230 μCi, best response (parentheses)): 5
- cures ([6]; low dose RIT (200–230 μCi)): 25%
- NR no regression (number of mice) [6, 18]: 0
- PR partial regression (number of mice) [6, 18]: 11
- CR complete regression (number of mice) ([6]; low dose RIT, worst response): 4
- NR no regression (number of mice) ([6]; low dose RIT, worst response): 3
- PR partial regression (number of mice) ([6]; low dose RIT, worst response): 9
- weight, RBC, WBC and platelet counts, in words [7, 13]: decreased weight, RBC, WBC and platelet counts
- mortality ([7]; high dose RIT (260 μCi)): 33%
- mortality ([7]; low dose RIT (200–230 μCi)): 29%

Molecule: cyclo-(Arg-Gly-Asp-D-Phe-1-aminocyclohexane carboxylic acid) [EMD 270179]
- increased uptake of RIT by HBT 3477 tumors [10]: up to 50%
